Values after ≈ are worked out from the molar mass of the structure shown. Values joined by “and” are separate entries in the source; they are usually repeats but may differ in a detail not shown here. Equal entries are not always repeated. “Also recorded” adds a separate entry of the source. Where two headings read alike, the source gives them in different places. Residues, ends and D or L forms follow the SMILES beside them. No end group written: not given here. *: point of attachment. βNA = c1ccc2cc(N*)ccc2c1
Tests used:
[1] = test system: tetracycline-resistant P. aeruginosa isolate 1419; test: Checkerboard potentiation assay with tetracycline; format: cell-based, Pseudomonas aeruginosa; settings: for EC50 / EC90: Pseudomonas aeruginosa
Procedure: (§1) Scaffold ranking library samples and individual polyamines were screened using checkerboard inhibitory assays to assess the potentiation of tetracycline and chloramphenicol. The test utilized a 96-well plate microtiter assay where the concentration of the scaffold or individual polyamine was decreased from 25 to 0.8 μg mL^-1 (average molarity of mixture samples 65 to 4 μM) along the rows, and the concentration of tetracycline or chloramphenicol was increased from 0.4 to 100 μM across the columns. […] However, with the known antibiotics, we report EC90 values in μM, which more accurately describes purified compounds. Plates were incubated statically at 37°C for 20 h, and the optical density (OD600) was determined using a Synergy 2 plate reader (BioTek). Potentiation modeling (detailed below) was performed to determine fold change in the 50 and 90% effective concentration of tetracycline or chloramphenicol.
(§2) Potentiation was quantified using a mathematical model developed by our group to assess the ability of library samples and individual compounds to effectively enhance the activity of tetracycline or chloramphenicol ([Hoel, 1987]). […] In this way, only libraries and compounds that potentiated tetracycline or chloramphenicol activity were pursued. The model is based on the following equation for modeling the percentage activity of a mixture of two agents with independent action ([Hoel, 1987]):
%Antibiotic & Comp(X1,X2)=%Antibiotic(X1)+%Comp(X2)−%Antibiotic(X1)⋅%Comp(X2)
Here, x1 and x2 are the concentrations of antibiotic (tetracycline or chloramphenicol) and library/compound (Comp) tested, respectively. This equation can be rearranged to model the effective percent activity (EC) of the antibiotic alone, after accounting for compound activity:
Eff%Antibiotic(X1)=%Antibiotic & Compound(X1,X2)−%Compound(X2)/1−%Compound(X2)
Thus, the model-adjusted checkerboards show the antibiotic activity post-potentiation, and from that one can determine the true change in Mic.

[2] = test system: A. baumannii 1643; test: Minimum inhibitory concentrations of antibiotics, A. baumannii isolate; format: cell-based; settings: Acinetobacter baumannii; strain 1643; read-out: minimal inhibitory concentration
Procedure: (§3) The bacterial strains used in this study are multi-drug resistant clinical isolates that have previously been described (Supplementary Table S1; [Fleeman et al., 2015]). Organisms were grown in tryptic soy broth (TSB) for overnight cultures and cation adjusted Mueller Hinton broth (CA-MH II) was used for experimental procedures. All incubations were performed at 37°C. The minimum inhibitory concentrations (MICS) for all antibiotics tested against these organisms are shown in Supplementary Table S1.

[3] = MTT cytotoxicity assay; format: cell-based; settings: human, 25 μg mL^-1, 48 h, read-out: percent recovery (cell viability)
Procedure: To assess toxicity of polyamine compounds we used HepG2 human liver carcinoma cells and Hek293T human embryonic kidney epithelial cells. The viability of cell lines was determined using a 3-(4,5-dimethylthiazol-2-yl)-2,5-diphenyltetrazolium bromide (MTT) molecular probe as previously described by our group ([Fleeman et al., 2015]). Briefly, 247, 266, 271 (Hek293T), or 250, 271, 314 (HepG2), alongside control efflux pump inhibitor PaβN, were diluted in 10% DMF from 25 μg mL^-1 to 3 μg mL^-1 using twofold dilutions, before being added to cells in DMEM with 10% FBS and 1% penicillin/streptomycin. Cells were then incubated for 48 h at 37°C with 5% CO2. Following this, viability was assessed by the addition of MTT and measuring the OD570 in a Biotek plate reader. Percent recovery was determined compared to no drug controls.

[4] = test system: P. aeruginosa (1419); test: Bactericidal assessment in combination with tetracycline; settings: Pseudomonas aeruginosa, read-out: percent recovery (bacterial viability)
Procedure: Lead agents were screened for bactericidal activity as described by us previously ([Van Horn et al., 2014]; [Fleeman et al., 2015]), with the following modifications. Varying concentrations of tetracycline (0, 12, 25, and 50 μM) were used in combination with the MPC (25 μM) of lead agents 247, 250, 266, 271, and 314 against P. aeruginosa. […] Biofilm experiments were performed similar to those described by us previously ([Fleeman et al., 2015]; [von Salm et al., 2016]), with the following modifications. Polyamine agents 247, 250, 266, 271, and 314 were added at MPC into biofilm containing wells alongside varying concentrations of tetracycline (0, 12, 25, and 50 μM). Cellular viability was determined by serial dilution after a 20-h incubation at 37°C. Values were converted to percent recovery using no treatment controls. All data was generated from three biological replicates and two technical replicates.

[5] = test system: P. aeruginosa; test: Minimum inhibitory concentrations of antibiotics, P. aeruginosa isolates; format: cell-based; settings: Pseudomonas aeruginosa, read-out: minimal inhibitory concentration
Procedure: as §3

[6] = test system: P. aeruginosa (1419); test: Bacterial membrane depolarization (DiSC3 dye); format: cell-based; settings: 25 μg mL^-1
Procedure: To determine the level of membrane depolarization by polyamine compounds a 3,3′-dipropylthiadicarbocyanine Iodide (DiSC3) fluorescence dye was used. Exponentially growing cultures were prepared as described above, before being harvested by centrifugation. Cells were next washed in buffer a [5 mM Hepes (pH 7.2), 5 mM glucose] and resuspended to an OD600 of 0.2 in the same buffer containing 100 mM KCL and 2 μM DiSC3. Samples were allowed to equilibrate for 15 min at room temperature to ensure uptake and quenching of the dye in bacterial membranes. Cells were aliquoted into 96-well plates and polyamines were added alongside the known efflux inhibitor PAβN (all at 25 μg mL^-1). Nisin (25 μg mL^-1) was used as a positive control to display depolarization effects. A Biotek plate reader was used to monitor fluorescence of wells, with a 622 nm excitation and 670 nm emission. For graphical representation, the maximum relative fluorescence at 2 min was used for comparison of lead agents to controls.

[7] = test system: P. aeruginosa (1419); test: Checkerboard potentiation assay with chloramphenicol; format: cell-based; settings: increasing polyamine concentration
Procedure: as §1
as §2, with “The model is based on the following equation for modeling the percentage activity of a mixture of two agents with independent action ([Hoel, 1987]):” left out

[8] = test system: P. aeruginosa proficient (1419) and deficient (1418) strain; test: Aztreonam combination testing in efflux proficient and deficient strains; format: cell-based; settings: strain 1419 (efflux proficient); polyamine 12.5 μg mL^-1, ½ X MIC aztreonam
Procedure: FIGURE 6 Confirming efflux pump inhibition by polyamines using efflux deficient strains. (A) A P. aeruginosa proficient (1419) and deficient (1418) strain were subjected to combination testing of the polyamines at 12.5 μg mL^-1 and ½ X MIC of aztreonam. Fold potentiation was calculated by dividing the CFU mL^-1 for aztreonam only by the CFU mL^-1 of the combined treatment groups. (B) Lead polyamine 247 was assessed for its ability to potentiate the activity of chloramphenicol toward S. aureus strain United States 300 and its norA mutant. Shown is the potentiated chloramphenicol EC90 calculated as described in A. Error bars are shown ± SEM.

[9] = test system: MRSA (USA300); test: Potentiation of chloramphenicol, MRSA USA300 and norA mutant; format: cell-based, S. aureus
Procedure: as §1
as §2, with “The model is based on the following equation for modeling the percentage activity of a mixture of two agents with independent action ([Hoel, 1987]):” left out

[10] = test system: S. aureus; test: microbe, parasite or virus in culture; format: cell-based; settings: Staphylococcus aureus
Procedure: as §3

[11] = EC50 tetracycline without EPI / with EPI
[12] = EC90 tetracycline without EPI / with EPI
[13] = 20 h, inhibitor alone, 25 μg mL^-1 highest concentration tested, * = EC50, read-out: EPI* (inhibitory concentration of efflux pump inhibitor alone)
[14] = Hek293T human embryonic kidney epithelial cells, vs solvent only controls
[15] = HepG2 human liver carcinoma cells
[16] = 25 µg ml-1 TPI, EC50 tetracycline no TPI / with TPI
[17] = 25 µg ml-1 TPI, EC90 tetracycline no TPI / with TPI

Molecule: COC(=O)[C@H]1[C@H]2C[C@@H]3c4[nH]c5cc(OC)ccc5c4CCN3C[C@H]2C[C@@H](OC(=O)c2cc(OC)c(OC)c(OC)c2)[C@@H]1OC [Reserpine, reserpine, reference compound]
- FP* (fold potentiation of tetracycline EC50) [1, 11]: 11.2 fold
- FP# (fold potentiation of tetracycline EC90) [1, 12]: 1 fold
- EC50 [1, 13]: > 25 µg/mL

Molecule: C[C@H]1COc2c(N3CCN(C)CC3)c(F)cc3c(=O)c(C(=O)O)cn1c23 [levofloxacin]
- MIC [2]: 100 µM (≈ 36.1 µg/mL)

Molecule: N=C(N)NCCC[C@H](NC(=O)[C@@H](N)Cc1ccccc1)C(=O)Nc1ccc2ccccc2c1 [PAβN, phenylalanine arginine beta naphthalimide, reference compound] (H-Phe-Arg-βNA)
- recovery at 48 h, 25 μg mL^-1 [3, 14]: 63%
- recovery at 48 h, 25 μg mL^-1 [3, 15]: 68%

Molecule: CN(C)[C@@H]1C(O)=C(C(N)=O)C(=O)[C@@]2(O)C(O)=C3C(=O)c4c(O)cccc4[C@@](C)(O)[C@H]3C[C@@H]12 [tetracycline]
- EC50 ([1]; no polyamine, average across replicates, read-out: tetracycline alone EC50): 47.8 µM
- EC90 ([1]; no library or polyamine, average across replicates, read-out: tetracycline alone EC90): 82.5 µM
- viability at 12 µM [4]: 53%
- viability at 25 µM [4]: 35%
- viability at 50 µM [4]: 1%
- MIC ([5]; strain 1418): 200 µM (≈ 88.9 µg/mL)
- MIC ([5]; strain 1419): 100 µM (≈ 44.4 µg/mL)

Molecule: NC(N)=NCCC[C@H](NC(=O)[C@@H](N)Cc1ccccc1)C(=O)Nc1ccc2ccccc2c1 [PAβN, phenylalanine arginine beta naphthalimide, reference compound] (H-Phe-Arg-βNA)
- FP* (fold potentiation of tetracycline EC50) [1, 11]: 65.5 fold
- FP (fold potentiation of tetracycline EC90) ([1]; EC90 tetracycline no TPL / with TPL at 25 µg ml-1): 8.01 fold
- FP# (fold potentiation of tetracycline EC90) [1, 12]: 8 fold
- EC50 [1, 13]: > 25 µg/mL
- EC90 ([1]; Torrey Pines Library alone, 25 µg ml-1 highest tested, read-out: TPL (inhibitory concentration of library alone, EC90)): > 25 µg/mL
- viability at 25 µg/mL [4]: 76%
- membrane depolarization (DiSC3 fluorescence change) [6]: strong increase in fluorescence

Molecule: CNCCCC[C@H](CN)NC[C@H](Cc1ccccc1)NCCc1ccccc1 [compound 266]
- FP* (fold potentiation of tetracycline EC50) [1, 16]: 6.8 fold
- FP# (fold potentiation of tetracycline EC90) [1, 17]: 5.8 fold
- FP* (fold potentiation of tetracycline EC50) [1, 11]: 6.8 fold
- FP# (fold potentiation of tetracycline EC90) [1, 12]: 5.8 fold
- EC50 [1, 13]: > 25 µg/mL
- TPI (inhibitory concentration of polyamine alone) ([1]; 25 µg ml-1 highest tested): > 25 µg/mL
- recovery at 48 h, 25 μg mL^-1 [3, 14]: 72%
- potentiation of chloramphenicol EC90 [7]: highest potentiation values

Molecule: NCCC[C@@H](CN[C@H](CN)Cc1ccccc1)NCCc1ccccc1 [compound 314]
- FP* (fold potentiation of tetracycline EC50) [1, 16]: 5 fold
- FP# (fold potentiation of tetracycline EC90) [1, 17]: 7.5 fold
- FP* (fold potentiation of tetracycline EC50) [1, 11]: 5 fold and 5.0 fold
- FP# (fold potentiation of tetracycline EC90) [1, 12]: 7.5 fold
- EC50 [1, 13]: > 25 µg/mL
- TPI (inhibitory concentration of polyamine alone) ([1]; 25 µg ml-1 highest tested): > 25 µg/mL
- recovery at 48 h, 25 μg mL^-1 [3, 15]: 77%

Molecule: C[C@H]1[C@H](NC(=O)/C(=N\OC(C)(C)C(=O)O)c2csc(N)n2)C(=O)N1S(=O)(=O)O [aztreonam]
- MIC ([5]; strain 1418): 6 µM (≈ 2.61 µg/mL)
- MIC ([5]; strain 1419): 1 µM (≈ 0.435 µg/mL)

Molecule: nisin (ITSISLCTPGCKTGALMGCNMKTATCHCSIHVSK; cysteine pairing not given here; also: lantibiotic nisin-A; UniProt P13068 24-57, looked up) [positive control for membrane depolarization]
- membrane depolarization (DiSC3 fluorescence change) [6]: strong increase in fluorescence

Molecule: NCC[C@@H](CN)NC[C@H](Cc1ccccc1)NCCc1ccccc1 [compound 250]
- FP* (fold potentiation of tetracycline EC50) [1, 16]: 7 fold
- FP# (fold potentiation of tetracycline EC90) [1, 17]: 7.8 fold
- FP* (fold potentiation of tetracycline EC50) [1, 11]: 7.0 fold
- FP# (fold potentiation of tetracycline EC90) [1, 12]: 7.8 fold
- EC50 [1, 13]: > 25 µg/mL
- TPI (inhibitory concentration of polyamine alone) ([1]; 25 µg ml-1 highest tested): > 25 µg/mL
- potentiation of aztreonam [8]: best potentiators of aztreonam
- recovery at 48 h, 25 μg mL^-1 [3, 15]: 80%

Molecule: CNCCCC[C@@H](CN)NC[C@H](Cc1ccccc1)NCCc1ccccc1 [compound 247]
- potentiation of chloramphenicol ([9]; norA knockout): little potentiation
- potentiation of chloramphenicol ([9]; wild-type USA300): marked potentiation of antibiotic activity in a dose responsive manner; also recorded: strongly potentiate chloramphenicol activity
- FP* (fold potentiation of tetracycline EC50) [1, 16]: 5 fold
- FP# (fold potentiation of tetracycline EC90) [1, 17]: 7.5 fold
- EC50 [1, 13]: > 25 µg/mL
- TPI (inhibitory concentration of polyamine alone) ([1]; 25 µg ml-1 highest tested): > 25 µg/mL
- recovery at 48 h, 25 μg mL^-1 [3, 14]: 84%

Molecule: O=C(N[C@H](CO)[C@H](O)c1ccc([N+](=O)[O-])cc1)C(Cl)Cl [chloramphenicol]
- MIC ([5]; strain 1418): > 619 µM
- MIC ([5]; strain 1419): 150 µM (≈ 48.5 µg/mL)
- MIC ([10]; USA100, strain 635 (USA100), read-out: minimal inhibitory concentration): 110 µM (≈ 35.5 µg/mL)
- MIC ([10]; USA300, read-out: minimal inhibitory concentration, strain JE-2 norA knockout (USA300)): 100 µM (≈ 32.3 µg/mL)
- MIC ([10]; USA300, strain JE-2 parental (USA300), read-out: minimal inhibitory concentration): 110 µM (≈ 35.5 µg/mL)
- MIC [2]: 85 µM (≈ 27.5 µg/mL)
- membrane depolarization (DiSC3 fluorescence change) [6]: decreased in florescence

From paper PMC6010545, “Identification of a Novel Polyamine Scaffold With Potent Efflux Pump Inhibition Activity Toward Multi-Drug Resistant Bacterial Pathogens” (Frontiers in Microbiology, 2018)
